Where two headings read alike, the source gives them in different places.
Tests used:
CB receptors = molecular target: T1, CB receptors (Rattus norvegicus, UniProt P20272); test: [3H]WIN55212-2 competition binding in rat brain membrane homogenate; conditions: for displace [3H]WIN55212-2: rat brain membrane homogenate
T1 construct: Crude membrane fractions were prepared from the brain without cerebellum; from tissue; host or cells: Wistar rat brain without cerebellum, crude membrane fraction
Procedure: (§1) Wistar rats were locally bred and handled according to the European Communities Council Directives (86/609/ECC) and the Hungarian Act for the Protection of Animals in Research (XXVlll.tv. Section 32). Crude membrane fractions were prepared from the brain without cerebellum. Brains were quickly removed from the euthanized rats and directly put in ice-cold 50 mM Tris-HCl buffer (pH 7.4). The collected tissue was then homogenized in 30 volumes (v/w) of ice-cold buffer with a Braun Teflon-glass homogenizer at the highest rpm. The homogenate was centrifuged at 20,000 g for 25 min and the resulting pellet was suspended in the same volume of cold buffer followed by incubation at 37°C for 30 min to remove endogenous ligands. Centrifugation was then repeated. The final pellets were taken up in five volumes of 50 mM Tris-HCl (pH 7.4) buffer containing 0.32 M sucrose and stored at -80°C. Prior to the experiment, aliquots were thawed and centrifuged at 20,000 g for 25 min and the were resuspended in 50 mM Tris-HCl (pH 7.4), homogenized with a Dounce in followed by the determination of the protein concentration by the method of Bradford.
Binding experiments were performed at 30 °C for 1 h in 50 mM Tris-HCl buffer pH 7.4 containing 2.5 mM EGTA, 5 mM MgCl2 and 0.5 mg/mL fatty acid free BSA in plastic tubes in a total assay volume of 1 mL that contained 0.3-0.5 mg/mL membrane protein.
Non-specific binding was determined in the presence of 10 µM WIN 55212-2. The incubation was terminated by diluting the samples with ice-cold wash buffer (50 mM Tris-HCl, 2.5 mM EGTA, 5 mM MgCl2, 0.5% fatty acid free BSA, pH 7.4), followed by repeated washing and rapid filtration through Whatman GF/B glass fiber filters (Whatman Ltd, Maidstone, England) presoaked with 0.1% polyethyleneimine (30 min before the filtration). Filtration was performed with a 24-well Brandel Cell Harvester (Gaithersburg, MD, USA). Filters were air-dried and immersed into Ultima Gold MV scintillation cocktail and then radioactivity was measured with a TRI-CARB 2100TR liquid scintillation analyzer (Packard).
(§2) Results are expressed as means ± S.E.M. of at least three independent experiments each performed in duplicate. In competition binding studies, the inhibitory constants (Ki) were calculated from the inflection points of the displacement curves using non-linear least-square curve fitting and the Cheng- Prusoff equation. All data and curves were analyzed by GraphPad Prism 5.0 (San Diego, CA, USA). In [^35S]GTPγS binding studies, data were expressed as the percentage stimulation of the specific [^35S]GTPγS binding over the basal activity and are given as means ± S.E.M. Each experiment was performed in triplicate and analyzed with sigmoid dose-response curve fitting to obtain potency (EC50) and efficacy (Emax) values. Statistical comparison was done by analysis of variance (one-way ANOVA) followed by the Bonferroni multiple comparison test of GraphPad Prism 5.0 (San Diego, CA, USA), P< 0.05 was chosen to indicate significant differences.

[1] = molecular target: CB receptor-associated G-proteins; test: Ligand stimulated [35S]GTPγS binding assay in rat brain membrane homogenate; assay type: biochemical; conditions: for EC50: [35S]GTPγS binding; for EC50 / Emax (%) ±SEM: rat brain membranes; for Emax (%) ±SEM: specific [35S]GTPγS binding, basal set as 100%; for G-protein stimulation (functional character): rat brain membrane homogenate
Procedure: as §1
(§3) Rat brain membranes (30 µg protein/tube) prepared as described above, were incubated with 0.05 nM [^35S]GTPγS (PerkinElmer) and 10^-10-10^-5 M unlabeled ligands in the presence of 30 µM GDP, 100 mM NaCl, 3 mM MgCl2 and 1 mM EGTA in 50 mM Tris-HCl buffer (pH 7.4) for 60 min at 30°C. Basal [^35S]GTPγS binding was measured in the absence of ligands and set as 100%. Nonspecific binding was determined by the addition of 10 µM unlabeled GTPγS and subtracted from total binding. Incubation, filtration and radioactivity measurement of the samples were carried out as described above.
as §2

CB1 receptor = molecular target: T2, CB1 receptor (Rattus norvegicus, UniProt P20272); test: CB1/CB2 receptor selectivity by [35S]GTPγS binding assay with rimonabant or AM630; assay type: biochemical; conditions: compound 10 µM; rimonabant 10 µM (CB1) vs AM630 10 µM (CB2)
T2 construct: Crude membrane fractions were prepared from the brain without cerebellum; from tissue; host or cells: Wistar rat brain without cerebellum, crude membrane fraction
T2 sequence (P20272 whole entry): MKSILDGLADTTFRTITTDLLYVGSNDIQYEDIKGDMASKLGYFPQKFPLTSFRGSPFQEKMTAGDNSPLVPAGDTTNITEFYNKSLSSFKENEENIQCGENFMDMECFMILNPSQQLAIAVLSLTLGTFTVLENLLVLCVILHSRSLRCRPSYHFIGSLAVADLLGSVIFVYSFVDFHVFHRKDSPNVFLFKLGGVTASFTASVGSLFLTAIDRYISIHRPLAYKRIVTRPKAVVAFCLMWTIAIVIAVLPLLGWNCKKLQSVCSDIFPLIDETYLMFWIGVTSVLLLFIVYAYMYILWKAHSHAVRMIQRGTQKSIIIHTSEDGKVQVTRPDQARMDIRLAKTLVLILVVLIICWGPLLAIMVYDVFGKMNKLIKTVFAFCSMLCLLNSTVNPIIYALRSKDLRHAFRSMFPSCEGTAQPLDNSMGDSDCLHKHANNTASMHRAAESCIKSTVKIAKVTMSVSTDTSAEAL
Procedure: Figures represent the specific binding of the radioligand in percentage in the presence of increasing concentrations (10^-10-10^-5 M) of the indicated ligands. "Total" on the x-axis indicates the total specific binding of the radioligand, which is measured in the absence of the unlabeled compounds. […] Figures represent relative specific binding of [^35S]GTPγS in the presence of increasing concentrations (10^-11-10^-5 M) of the indicated compounds. […] The specific binding of [^35S]GTPγS is represented in percentage in the presence or absence of 10 µM rimonabant (CB1 antagonist/inverse agonist) or AM630 (CB2 antagonist/inverse agonist). Data are expressed as percentage of mean specific binding ± S.E.M. (n≥ 3).
as §3
In the next step the compounds were evaluated for CB1/CB2 receptor selectivity by [^35S]GTPγS binding assays. The G-protein stimulatory effect of compounds LONI 1-LONI 9 (10 µM) was reduced by the CB1 receptor antagonist/inverse agonist rimonabant (10 µM) and by the CB2 receptor antagonist/inverse agonist AM630 (10 µM), and a 3-6-fold selectivity for CB1 receptor was observed.

T1 sequence (P20272 whole entry): as above

| SMILES | Ki (CB receptors; 1.5 nM [3H]WIN55212-2, rat brain membranes, mean of three independent measurements (S.E.M. 5-12%), read-out: Ki (nM)*) | EC50 ([1]; read-out: EC50) | Emax (%) ±SEM [1] | Ki (CB receptors) | EC50 ([1]; read-out: potency) | G-protein stimulation (functional character) [1] | selectivity for CB1 receptor (CB1 receptor) | displace [3H]WIN55212-2 (CB receptors) |
| --- | --- | --- | --- | --- | --- | --- | --- | --- |
| CCCCCn1cc(C(=O)c2cccc3ccccc23)c2ccccc21 [JWH-018, reference compound] | 3.5 nM | 16 nM | 163 ± 5.2% |  |  |  |  |  |
| CC(C)(C)[C@H](NC(=O)c1nn(Cc2ccc(Cl)cc2Cl)c2ccccc12)C(=O)O [LONI 1, (S)-2-(1-(2,4-dichlorobenzyl)-1H-indazole-3-carboxamido)-3,3-dimethylbutanoic acid] |  | 2800 nM | 84 ± 6.6% | 0.08 nM | 1800 to 3200 nM | weak inverse agonist activity |  |  |
| COC(=O)[C@@H](NC(=O)c1nn(Cc2ccc(Cl)cc2Cl)c2ccccc12)C(C)(C)C [LONI 2, (S)-methyl 2-(1-(2,4-dichlorobenzyl)-1H-indazole-3-carboxamido)-3,3-dimethylbutanoate] |  | 8.4 nM | 143 ±5.7% | 3.1 nM |  |  |  |  |
| CC(C)(C)[C@H](NC(=O)c1nn(Cc2ccc(Cl)cc2Cl)c2ccccc12)C(N)=O [LONI 3, (S)-N-(1-amino-3,3-dimethyl-1-oxobutan-2-yl)-1-(2,4-dichlorobenzyl)-1H-indazole-3 carboxamide] |  | 126 nM | 139 ± 4.5% | 17 nM |  | partial agonists | 6 fold |  |
| CC(C)[C@H](NC(=O)c1nn(Cc2ccc(Cl)cc2Cl)c2ccccc12)C(=O)O [LONI 4, (S)-2-(1-(2,4-dichlorobenzyl)-1H-indazole-3-carboxamido)-3-methylbutanoic aci] |  | 3290 nM | 82 ± 10.6% | 2.6 nM | 1800 to 3200 nM | weak inverse agonist activity | 3 fold |  |
| COC(=O)[C@@H](NC(=O)c1nn(Cc2ccc(Cl)cc2Cl)c2ccccc12)C(C)C [LONI 5, (S)-methyl 2-(1-(2,4-dichlorobenzyl)-1H-indazole-3-carboxamido)-3-methylbutanoate] |  |  | 140 ± 3.7% | 1.8 nM |  |  |  |  |
| CC(C)[C@H](NC(=O)c1nn(Cc2ccc(Cl)cc2Cl)c2ccccc12)C(N)=O [LONI 6, (S)-N-(1-amino-3-methyl-1-oxobutan-2-yl)-1-(2,4-dichlorobenzyl)-1H-indazole-3-carboxamide] |  |  | 135 ± 4.9% | 17 nM |  | partial agonists |  |  |
| CC(C)C[C@H](NC(=O)c1nn(Cc2ccc(Cl)cc2Cl)c2ccccc12)C(=O)O [LONI 7, (S)-2-(1-(2,4-dichlorobenzyl)-1H-indazole-3-carboxamido)-4-methylpentanoic acid] |  | 1870 nM | 86 ± 9.3% | 43 nM | 1800 to 3200 nM | weak inverse agonist activity |  |  |
| COC(=O)[C@H](CC(C)C)NC(=O)c1nn(Cc2ccc(Cl)cc2Cl)c2ccccc12 [LONI 8, (S)-methyl 2-(1-(2,4-dichlorobenzyl)-1H-indazole-3-carboxamido)-4-methylpentanoate] |  |  | 122 ± 4.6% | 63 nM |  |  |  |  |
| CC(C)C[C@H](NC(=O)c1nn(Cc2ccc(Cl)cc2Cl)c2ccccc12)C(N)=O [LONI 9, (S)-N-(1-amino-4-methyl-1-oxopentan-2-yl)-1-(2,4-dichlorobenzyl)-1H-indazole-3-carboxamide] |  |  | 120 ± 5.9% | 88 nM |  | partial agonists | 6 fold |  |
| O=C(O)c1nn(Cc2ccc(Cl)cc2Cl)c2ccccc12 [LONI A, Lonidamine, reference compound] |  |  |  |  |  | didn't show G-protein stimulation |  | neither LONI A nor its derivatives LONI B and LONI C could displace [^3H]WIN55212-2 |
| NC(=O)c1nn(Cc2ccc(Cl)cc2Cl)c2ccccc12 [LONI B, reference compound] |  | 2780 nM | 70 ± 8.7% |  |  | weak inverse agonist |  | neither LONI A nor its derivatives LONI B and LONI C could displace [^3H]WIN55212-2 |
| COC(=O)c1nn(Cc2ccc(Cl)cc2Cl)c2ccccc12 [LONI C, reference compound] |  | 3160 nM | 69 ± 2.6% |  |  | weak inverse agonist |  | neither LONI A nor its derivatives LONI B and LONI C could displace [^3H]WIN55212-2 |

From patent EP3564214B1, “INDAZOLE DERIVATIVES AS MODULATORS OF THE CANNABINOID SYSTEM” (Universita' Degli Studi G. D'annunzio Chieti - Pescara, priority 2018, dated 2019)
